Assays:
[1] = biological target: T1, AChE (Electrophorus electricus, UniProt O42275); experiment: Rapid ticket test for AChE inhibitors with lyophilized AChE and NMI substrate discs, hue ratio by reader; details: without oxidation
Description: Filter discs ( 3/16″ diameter) of porous matrix Surewick Sample Pad C248 SA3J035V06 (Millipore). were punched from sheets using a manual punch and die.
N-methyl indoxyl (NMI) acetate (100 mg, Sigma-Aldrich) was dissolved in 100 mL 200 proof (100%) USP ethyl alcohol (Sigma-Aldrich) for a final concentration of 1 mg/mL and added to the beaker containing the filter pads. The filter discs were mixed gently with a spatula for five minutes. The discs were then carefully removed from the solution and spread out on a polystyrene sheet and dried at 45° C. for two hours. The filter discs were then removed from the oven and stored in a resealable plastic bag with desiccant. […]
The tickets were allowed to react for 15 minutes at room temperature and then inserted into the handheld fluorescence reader comprised of low light color cameras, 400 nm UV LED and custom color analysis software (FIG. 2). Enzyme inhibition was detected by the difference in the hue measurement of the Test Sample compared to the negative control (FIG. 4). The reader calculates a ratio of the hue measured in the test sample well to the hue measured in the negative control well.
Analysis was alternatively performed by visual observation of the ticket using a 400 nm UV LED flashlight (FIGS. 7 and 8). Visually, inhibition was detected directly based on the decrease in fluorescence of the test sample compared to the negative control.

[2] = biological target: T2, cholinesterase in human plasma (Homo sapiens, UniProt P06276); experiment: Detection of cholinesterase inhibition in spiked human plasma on the NMI ticket; format: biochemical; details: human plasma pool spiked to final 100 ppm oxamyl, incubated overnight (22 hours) at room temperature; control zone unspiked pool
T2 construct: from tissue; host or cells: human plasma pool
T2 sequence (P06276 29-602): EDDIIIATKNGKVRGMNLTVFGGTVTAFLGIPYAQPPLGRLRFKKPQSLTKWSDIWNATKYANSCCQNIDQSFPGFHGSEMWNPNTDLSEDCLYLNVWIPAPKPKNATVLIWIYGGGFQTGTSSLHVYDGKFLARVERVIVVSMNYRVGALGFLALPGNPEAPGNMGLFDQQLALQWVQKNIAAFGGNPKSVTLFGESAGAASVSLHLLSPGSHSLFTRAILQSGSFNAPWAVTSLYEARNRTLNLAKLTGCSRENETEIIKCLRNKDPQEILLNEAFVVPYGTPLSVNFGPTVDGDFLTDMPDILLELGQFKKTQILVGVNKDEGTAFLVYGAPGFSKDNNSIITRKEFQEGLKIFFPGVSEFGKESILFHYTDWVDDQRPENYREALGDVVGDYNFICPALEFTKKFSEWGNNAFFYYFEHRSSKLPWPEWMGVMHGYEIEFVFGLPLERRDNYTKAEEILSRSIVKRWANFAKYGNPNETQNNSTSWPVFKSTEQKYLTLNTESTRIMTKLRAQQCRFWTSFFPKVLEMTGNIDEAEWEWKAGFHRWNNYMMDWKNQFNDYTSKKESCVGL

[3] = biological target: T1, AChE; experiment: Effect of heating the AChE reaction vials on time of detection of a positive sample; format: biochemical, eel; design: purchased Sigma-Aldrich; details: 0.1 ppm oxamyl in water; for Detection result, Heated: heating block 40° C.; for Detection result, Not Heated: room temperature (21° C.)
Description: Water obtained from reverse osmosis treatment was spiked with 0.1 ppm oxamyl, a carbamate pesticide. The pesticide-contaminated sample was tested using the procedure described in Example 4. Two sets of two reagent vials containing AChE were opened. To the first vial of each set was added 1 mL of the test sample containing pesticide. To the second vial of each set was added 1 mL of a negative control water. All vials were thoroughly mixed. One set of vials was placed in a heating block set at 40° C., while the other set of vials was allowed to stand at room temperature (21° C.). From each set of vials, 50 μL was sampled at 5, 10, 15, and 20 minutes and transferred to corresponding reaction zones in test tickets. After 15 minutes incubation, the fluorescence in the reaction zones of each ticket were measured on a reader.

[4] = test system: Carboxylesterase (CE); experiment: Rapid ticket test with lyophilized carboxylesterase (CE) and NMI substrate discs, no sample oxidation; details: without oxidation

T1 sequence (O42275 24-633): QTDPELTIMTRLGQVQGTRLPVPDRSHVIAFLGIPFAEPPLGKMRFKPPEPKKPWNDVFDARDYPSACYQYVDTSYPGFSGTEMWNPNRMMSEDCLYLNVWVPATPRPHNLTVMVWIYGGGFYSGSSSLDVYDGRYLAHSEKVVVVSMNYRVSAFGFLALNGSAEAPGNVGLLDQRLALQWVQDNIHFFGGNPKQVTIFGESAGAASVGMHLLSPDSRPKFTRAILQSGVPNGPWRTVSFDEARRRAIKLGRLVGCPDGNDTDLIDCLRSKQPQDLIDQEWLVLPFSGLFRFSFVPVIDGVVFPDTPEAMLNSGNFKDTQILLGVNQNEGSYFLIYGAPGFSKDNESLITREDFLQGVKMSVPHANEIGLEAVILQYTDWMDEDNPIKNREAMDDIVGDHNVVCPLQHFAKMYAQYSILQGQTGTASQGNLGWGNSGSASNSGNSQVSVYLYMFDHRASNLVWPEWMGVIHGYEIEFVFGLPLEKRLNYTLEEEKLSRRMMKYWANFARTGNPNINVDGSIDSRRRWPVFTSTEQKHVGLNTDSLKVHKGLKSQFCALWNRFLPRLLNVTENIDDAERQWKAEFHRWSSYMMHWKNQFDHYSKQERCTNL

CNC(=O)O/N=C/C(C)(C)SC [Aldicarb, aldicarb]
Reaction with AChE (in words) [1]: react strongly with AChE

CNC(=O)O/N=C(\SC)C(=O)N(C)C [Oxamyl, oxamyl]
hue ratio [2]: 3.10
Detection result, Heated ([3]; 5 min): positive
Detection result, Heated ([3]; 10 min): positive
Detection result, Heated ([3]; 15 min): positive
Detection result, Heated ([3]; 20 min): positive
Detection result, Not Heated ([3]; 5 min): negative
Detection result, Not Heated ([3]; 10 min): negative
Detection result, Not Heated ([3]; 15 min): positive
Detection result, Not Heated ([3]; 20 min): positive
Reaction with AChE (in words) [1]: react strongly with AChE

COP(=S)(OC)Oc1ccc([N+](=O)[O-])cc1 [Methyl Parathion, methyl parathion]
Reaction with CE compared with AChE (in words) [4]: react more strongly with CE than with AChE

COP(N)(=O)SC (stereo not shown) [Methamidophos, methamidophos]
Reaction with CE compared with AChE (in words) [4]: react more strongly with CE than with AChE

— patent US10458916B2, “Rapid tests for the detection of inhibitors of enzymes and human exposure to the same” (priority 2011, dated 2019)
